ChEMBL document CHEMBL4017483, “Potent and selective oxytocin receptor agonists without disulfide bridges” (Bioorg Med Chem Lett, 2017)
pEC50: −log10 of the molar value. Numbered stars: 1 amine (or outer) side, 2 acyl side, 3 side chain; on linkers, the order of the positions; unused ones are H or OH. Bridge positions count the residues as written; N and C are the ends. Square brackets hold non-standard residues; d marks the D form. Peptide text beside a SMILES is read from it. Hyp = O=C(O)[C@@H]1C[C@@H](O)CN1; tBuAla = CC(C)(C)C[C@H](N)C(=O)O; Suc = O=C(CCC(=O)[*:2])[*:1]; X1 = O=C(CCC[*:2])[*:1]; Dap = NC[C@H](N)C(=O)O; azaGly = NNC(=O)O; Mpa = O=C(O)CCS

Tests used:
[1] = biological target: T1, Oxytocin receptor (Homo sapiens, UniProt P30559); experiment: Agonist activity at human OTR expressed in CHO cells assessed as calcium mobilization measured after 30 mins by Fluo-4-AM dye based FLIPR assay; type: functional, cell-based
T1 sequence (P30559 whole entry): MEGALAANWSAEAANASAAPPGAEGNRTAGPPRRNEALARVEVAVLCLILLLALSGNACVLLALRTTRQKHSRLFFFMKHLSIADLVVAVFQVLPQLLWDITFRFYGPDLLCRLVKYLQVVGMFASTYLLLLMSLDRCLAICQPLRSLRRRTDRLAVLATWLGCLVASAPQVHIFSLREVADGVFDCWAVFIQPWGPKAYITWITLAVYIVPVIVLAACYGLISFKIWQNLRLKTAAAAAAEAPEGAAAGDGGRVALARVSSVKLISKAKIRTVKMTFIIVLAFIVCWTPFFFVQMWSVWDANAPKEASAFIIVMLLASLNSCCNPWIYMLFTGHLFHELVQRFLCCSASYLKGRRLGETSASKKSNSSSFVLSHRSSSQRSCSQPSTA

[2] = biological target: Vasopressin V1a receptor (Homo sapiens, UniProt P37288); experiment: Agonist activity at human V1a receptor expressed in CHO cells assessed as calcium mobilization measured after 30 mins by Fluo-4-AM dye based FLIPR assay; type: cell-based
Vasopressin V1a receptor, sequence (P37288 whole entry): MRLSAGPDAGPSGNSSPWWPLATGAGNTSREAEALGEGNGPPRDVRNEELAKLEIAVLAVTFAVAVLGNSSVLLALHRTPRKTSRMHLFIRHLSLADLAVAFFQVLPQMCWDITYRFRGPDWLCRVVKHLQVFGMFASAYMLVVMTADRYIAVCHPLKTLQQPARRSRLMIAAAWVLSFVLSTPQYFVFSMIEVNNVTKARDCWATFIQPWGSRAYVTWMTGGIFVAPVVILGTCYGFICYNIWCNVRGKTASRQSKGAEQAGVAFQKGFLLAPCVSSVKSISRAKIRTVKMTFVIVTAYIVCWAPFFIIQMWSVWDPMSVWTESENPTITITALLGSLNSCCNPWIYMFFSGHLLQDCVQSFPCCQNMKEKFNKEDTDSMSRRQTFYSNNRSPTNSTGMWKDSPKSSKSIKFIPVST

[3] = biological target: T2, Vasopressin V1b receptor (Homo sapiens, UniProt P47901); experiment: Agonist activity at human V1b receptor expressed in CHO cells assessed as calcium mobilization measured after 30 mins by Fluo-4-AM dye based FLIPR assay; type: cell-based
T2 sequence (P47901 whole entry): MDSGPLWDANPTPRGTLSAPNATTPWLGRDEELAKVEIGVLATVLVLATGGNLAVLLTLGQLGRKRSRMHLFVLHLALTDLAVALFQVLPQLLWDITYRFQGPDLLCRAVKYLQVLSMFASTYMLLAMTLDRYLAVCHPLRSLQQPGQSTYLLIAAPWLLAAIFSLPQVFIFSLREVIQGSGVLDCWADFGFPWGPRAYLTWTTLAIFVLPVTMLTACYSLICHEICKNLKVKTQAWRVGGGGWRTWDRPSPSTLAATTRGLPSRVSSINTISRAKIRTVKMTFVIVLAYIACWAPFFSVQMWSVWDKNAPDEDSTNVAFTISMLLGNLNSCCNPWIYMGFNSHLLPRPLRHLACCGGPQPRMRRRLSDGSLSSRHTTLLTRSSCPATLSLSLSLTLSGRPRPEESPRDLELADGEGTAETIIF

[4] = organism: Homo sapiens; experiment: Selectivity ratio of EC50 for human V1a receptor to EC50 for human OTR
[5] = organism: Homo sapiens; experiment: Selectivity ratio of EC50 for human V1b receptor to EC50 for human OTR

SMILES | pEC50 [1] | pEC50 [2] | pEC50 [3] | Ratio EC50 [4] | Ratio EC50 [5]
CC[C@H](C)[C@@H]1NC(=O)[C@H](Cc2ccc(O)cc2)NC(=O)CCCSC[C@@H](C(=O)N2C[C@H](O)C[C@H]2C(=O)N[C@@H](CC(C)(C)C)C(=O)NCC(N)=O)NC(=O)[C@H](CC(N)=O)NC(=O)[C@H](CCC(N)=O)NC1=O (YIQNC[Hyp][tBuAla]G-NH2; linker N-5 via X1) | 11.14 | < 7.00 | < 7.00 | > 10000 | > 10000
CC[C@H](C)[C@@H]1NC(=O)[C@H](Cc2ccc(O)cc2)NC(=O)CCC(=O)NC[C@@H](C(=O)N2CCC[C@H]2C(=O)N[C@@H](CC(C)C)C(=O)NCC(N)=O)NC(=O)[C@H](CC(N)=O)NC(=O)[C@H](CCC(N)=O)NC1=O (YIQN[Dap]PLG-NH2; linker N-5 via Suc) | 9.92 | < 7.00 | < 7.00 | > 100 | > 100
CC[C@H](C)[C@@H]1NC(=O)[C@H](Cc2ccc(O)cc2)NC(=O)CCC(=O)NC[C@@H](C(=O)N2CCC[C@H]2C(=O)N[C@@H](CC(C)(C)C)C(=O)NCC(N)=O)NC(=O)[C@H](CC(N)=O)NC(=O)[C@H](CCC(N)=O)NC1=O (YIQN[Dap]P[tBuAla]G-NH2; linker N-5 via Suc) | 9.59 | < 7.00 | < 7.00 | > 100 | > 100
CC[C@H](C)[C@@H]1NC(=O)[C@H](Cc2ccc(O)cc2)NC(=O)CCC(=O)NC[C@@H](C(=O)N2C[C@H](O)C[C@H]2C(=O)N[C@@H](CC(C)C)C(=O)NCC(N)=O)NC(=O)[C@H](CC(N)=O)NC(=O)[C@H](CCC(N)=O)NC1=O (YIQN[Dap][Hyp]LG-NH2; linker N-5 via Suc) | 10.89 | < 7.00 | < 7.00 | > 1000 | > 1000
CC[C@H](C)[C@@H]1NC(=O)[C@H](Cc2ccc(O)cc2)NC(=O)CCC(=O)NC[C@@H](C(=O)N2C[C@H](O)C[C@H]2C(=O)N[C@@H](CC(C)C)C(=O)NNC(N)=O)NC(=O)[C@H](CC(N)=O)NC(=O)[C@H](CCC(N)=O)NC1=O (YIQN[Dap][Hyp]L[azaGly]-NH2; linker N-5 via Suc) | 10.51 | < 7.00 | < 7.00 | > 1000 | > 1000
CC[C@H](C)[C@@H]1NC(=O)[C@H](Cc2ccccc2)NC(=O)CCSSC[C@@H](C(=O)N2CCC[C@H]2C(=O)N[C@@H](CC(C)C)C(=O)NCC(N)=O)NC(=O)[C@H](CC(N)=O)NC(=O)[C@H](CCC(N)=O)NC1=O ([Mpa]FIQNCPLG-NH2; disulfide 1-6) | 9.72 | < 7.00 | < 7.00 | > 100 | > 100
CC[C@H](C)[C@@H]1NC(=O)[C@H](CC(C)C)NC(=O)CCSSC[C@@H](C(=O)N2CCC[C@H]2C(=O)N[C@@H](CC(C)C)C(=O)NCC(N)=O)NC(=O)[C@H](CC(N)=O)NC(=O)[C@H](CCC(N)=O)NC1=O ([Mpa]LIQNCPLG-NH2; disulfide 1-6) | 8.44 | < 7.00 | < 7.00 | > 10 | > 10
CC(C)C[C@H](NC(=O)[C@@H]1CCCN1C(=O)[C@@H]1CSSCCC(=O)N[C@@H](Cc2ccc(O)cc2)C(=O)N[C@@H](C)C(=O)N[C@@H](CCC(N)=O)C(=O)N[C@@H](CC(N)=O)C(=O)N1)C(=O)NCC(N)=O ([Mpa]YAQNCPLG-NH2; disulfide 1-6) | 8.36 | < 7.00 | < 7.00 | > 10 | > 10
CC(C)C[C@H](NC(=O)[C@@H]1CCCN1C(=O)[C@@H]1CSSCCC(=O)N[C@@H](Cc2ccc(O)cc2)C(=O)N[C@@H](Cc2ccccc2)C(=O)N[C@@H](CCC(N)=O)C(=O)N[C@@H](CC(N)=O)C(=O)N1)C(=O)NCC(N)=O ([Mpa]YFQNCPLG-NH2; disulfide 1-6) | 9.96 | < 7.00 | 9.37 | > 100 | 3.9
CC[C@H](C)[C@@H]1NC(=O)[C@H](Cc2ccc(O)cc2)NC(=O)CCSSC[C@@H](C(=O)N2CCC[C@H]2C(=O)N[C@@H](CC(C)C)C(=O)NCC(N)=O)NC(=O)[C@H](CC(N)=O)NC(=O)[C@H](C)NC1=O ([Mpa]YIANCPLG-NH2; disulfide 1-6) | 9.62 | < 7.00 | 7.16 | > 100 | 290
CC[C@H](C)[C@@H]1NC(=O)[C@H](Cc2ccc(O)cc2)NC(=O)CCSSC[C@@H](C(=O)N2CCC[C@H]2C(=O)N[C@@H](CC(C)C)C(=O)NCC(N)=O)NC(=O)[C@H](CC(N)=O)NC(=O)[C@H](CCC(=O)O)NC1=O ([Mpa]YIENCPLG-NH2; disulfide 1-6) | 8.29 | < 7.00 | < 7.00 | > 10 | > 10
CC[C@H](C)[C@@H]1NC(=O)[C@H](Cc2ccc(O)cc2)NC(=O)CCSSC[C@@H](C(=O)N2CCC[C@H]2C(=O)N[C@@H](CC(C)C)C(=O)NCC(N)=O)NC(=O)[C@H](CC(N)=O)NC(=O)[C@H](Cc2ccccc2)NC1=O ([Mpa]YIFNCPLG-NH2; disulfide 1-6) | 7.66 | < 7.00 | < 7.00 | > 4 | > 4
CC[C@H](C)[C@@H]1NC(=O)[C@H](Cc2ccc(O)cc2)NC(=O)CCSSC[C@@H](C(=O)N2CCC[C@H]2C(=O)N[C@@H](CC(C)C)C(=O)NCC(N)=O)NC(=O)[C@H](CC(N)=O)NC(=O)[C@H](CC(C)C)NC1=O ([Mpa]YILNCPLG-NH2; disulfide 1-6) | 9.11 | < 7.00 | 7.64 | > 100 | 29
CC[C@H](C)[C@@H]1NC(=O)[C@H](Cc2ccc(O)cc2)NC(=O)CCSSC[C@@H](C(=O)N2CCC[C@H]2C(=O)N[C@@H](CC(C)C)C(=O)NCC(N)=O)NC(=O)[C@H](C)NC(=O)[C@H](CCC(N)=O)NC1=O ([Mpa]YIQACPLG-NH2; disulfide 1-6) | 7.77 | < 7.00 | < 7.00 | > 5 | > 5
CC[C@H](C)[C@@H]1NC(=O)[C@H](Cc2ccc(O)cc2)NC(=O)CCSSC[C@@H](C(=O)N2CCC[C@H]2C(=O)N[C@@H](CC(C)C)C(=O)NCC(N)=O)NC(=O)[C@H](CCC(=O)O)NC(=O)[C@H](CCC(N)=O)NC1=O ([Mpa]YIQECPLG-NH2; disulfide 1-6) | 7.05 | < 7.00 | < 7.00 | > 1 | > 1
CC[C@H](C)[C@@H]1NC(=O)[C@H](Cc2ccc(O)cc2)NC(=O)CCSSC[C@@H](C(=O)N[C@@H](C)C(=O)N[C@@H](CC(C)C)C(=O)NCC(N)=O)NC(=O)[C@H](CC(N)=O)NC(=O)[C@H](CCC(N)=O)NC1=O ([Mpa]YIQNCALG-NH2; disulfide 1-6) | 10.15 | < 7.00 | < 7.00 | > 1000 | > 1000
CC[C@H](C)[C@@H]1NC(=O)[C@H](Cc2ccc(O)cc2)NC(=O)CCSSC[C@@H](C(=O)N[C@@H](CCC(=O)O)C(=O)N[C@@H](CC(C)C)C(=O)NCC(N)=O)NC(=O)[C@H](CC(N)=O)NC(=O)[C@H](CCC(N)=O)NC1=O ([Mpa]YIQNCELG-NH2; disulfide 1-6) | 9.46 | < 7.00 | < 7.00 | > 100 | > 100
CC[C@H](C)[C@@H]1NC(=O)[C@H](Cc2ccc(O)cc2)NC(=O)CCSSC[C@@H](C(=O)N[C@@H](Cc2ccccc2)C(=O)N[C@@H](CC(C)C)C(=O)NCC(N)=O)NC(=O)[C@H](CC(N)=O)NC(=O)[C@H](CCC(N)=O)NC1=O ([Mpa]YIQNCFLG-NH2; disulfide 1-6) | 9.92 | < 7.00 | < 7.00 | > 100 | > 100
CC[C@H](C)[C@@H]1NC(=O)[C@H](Cc2ccc(O)cc2)NC(=O)CCSSC[C@@H](C(=O)NCC(=O)N[C@@H](CC(C)C)C(=O)NCC(N)=O)NC(=O)[C@H](CC(N)=O)NC(=O)[C@H](CCC(N)=O)NC1=O ([Mpa]YIQNCGLG-NH2; disulfide 1-6) | 10.89 | < 7.00 | < 7.00 | > 1000 | > 1000
CC[C@H](C)[C@@H]1NC(=O)[C@H](Cc2ccc(O)cc2)NC(=O)CCSSC[C@@H](C(=O)N[C@@H](CC(C)C)C(=O)N[C@@H](CC(C)C)C(=O)NCC(N)=O)NC(=O)[C@H](CC(N)=O)NC(=O)[C@H](CCC(N)=O)NC1=O ([Mpa]YIQNCLLG-NH2; disulfide 1-6) | 8.47 | < 7.00 | < 7.00 | > 10 | > 10
